Experiment [1] has as its target T1, Tyrosine-protein kinase Mer (Homo sapiens) (UniProt Q12866).
T1 sequence (whole entry): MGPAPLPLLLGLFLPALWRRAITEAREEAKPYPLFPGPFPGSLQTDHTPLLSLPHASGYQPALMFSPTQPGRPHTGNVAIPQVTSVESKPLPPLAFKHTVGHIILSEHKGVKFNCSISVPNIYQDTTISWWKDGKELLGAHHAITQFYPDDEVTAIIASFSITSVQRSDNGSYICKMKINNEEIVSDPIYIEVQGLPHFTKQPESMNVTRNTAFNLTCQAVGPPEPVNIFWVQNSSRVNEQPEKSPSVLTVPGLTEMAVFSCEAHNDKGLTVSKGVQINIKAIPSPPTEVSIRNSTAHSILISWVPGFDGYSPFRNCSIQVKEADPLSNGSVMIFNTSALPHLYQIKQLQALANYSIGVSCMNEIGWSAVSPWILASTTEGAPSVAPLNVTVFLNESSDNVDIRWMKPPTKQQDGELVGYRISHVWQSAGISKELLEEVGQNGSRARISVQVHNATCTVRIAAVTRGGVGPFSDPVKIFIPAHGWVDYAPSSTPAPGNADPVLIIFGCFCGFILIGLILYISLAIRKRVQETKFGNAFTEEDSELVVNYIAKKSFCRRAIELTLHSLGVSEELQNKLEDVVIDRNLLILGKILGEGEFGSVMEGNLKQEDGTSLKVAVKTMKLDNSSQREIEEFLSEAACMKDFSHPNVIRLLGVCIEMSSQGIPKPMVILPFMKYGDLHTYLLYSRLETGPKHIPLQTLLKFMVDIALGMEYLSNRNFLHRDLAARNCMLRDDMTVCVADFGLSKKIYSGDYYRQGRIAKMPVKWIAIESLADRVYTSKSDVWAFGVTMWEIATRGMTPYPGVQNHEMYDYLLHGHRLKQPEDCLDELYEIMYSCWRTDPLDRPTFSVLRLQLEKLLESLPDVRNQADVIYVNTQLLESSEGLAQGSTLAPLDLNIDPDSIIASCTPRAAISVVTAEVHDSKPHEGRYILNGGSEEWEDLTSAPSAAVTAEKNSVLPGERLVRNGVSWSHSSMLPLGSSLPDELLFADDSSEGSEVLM
Description: MERTK SGC Tm panel (DSF). As to conditions: for ΔTm: Compound concentration 10.0 uM.

The target of experiment [2] is 5-hydroxytryptamine receptor 2A (Homo sapiens) (UniProt P28223). As to conditions: Compound concentration 10.0 uM.
The target of experiment [3] is Fibroblast growth factor receptor 1 (Homo sapiens) (UniProt P11362). Description: FGFR1 SGC Tm panel (DSF). As to conditions: for ΔTm: Compound concentration 10.0 uM.
Experiment [4] deals with Muscarinic acetylcholine receptor M3 (Homo sapiens) (UniProt P20309). The settings on record: Compound concentration 10.0 uM.
Experiment [5] deals with AP2-associated protein kinase 1 (Homo sapiens) (UniProt Q2M2I8). Description: AAK1 SGC Tm panel (DSF). The settings on record: for ΔTm: Compound concentration 10.0 uM.
For experiment [6], the species on record is Rattus norvegicus. The settings on record: Compound concentration 10.0 uM.
In experiment [7] the target is T2, Muscarinic acetylcholine receptor M2 (Homo sapiens) (UniProt P08172).
T2 sequence (whole entry): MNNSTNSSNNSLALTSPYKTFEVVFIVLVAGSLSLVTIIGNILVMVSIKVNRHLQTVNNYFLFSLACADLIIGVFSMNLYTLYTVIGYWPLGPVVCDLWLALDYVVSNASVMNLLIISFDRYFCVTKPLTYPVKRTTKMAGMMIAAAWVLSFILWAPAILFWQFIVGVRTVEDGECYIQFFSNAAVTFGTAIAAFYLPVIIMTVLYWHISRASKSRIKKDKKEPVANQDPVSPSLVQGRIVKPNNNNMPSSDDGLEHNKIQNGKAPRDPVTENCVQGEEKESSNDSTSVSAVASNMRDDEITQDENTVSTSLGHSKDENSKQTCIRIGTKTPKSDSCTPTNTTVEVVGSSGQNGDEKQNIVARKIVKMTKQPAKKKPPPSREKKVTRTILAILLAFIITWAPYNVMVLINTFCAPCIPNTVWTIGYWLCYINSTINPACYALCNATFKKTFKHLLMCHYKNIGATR
The settings on record: Compound concentration 10.0 uM.

Experiment [8] has as its target Delta-type opioid receptor (Homo sapiens) (UniProt P41143). The settings on record: Compound concentration 10.0 uM.
In experiment [9] the target is Alpha-1D adrenergic receptor (Homo sapiens) (UniProt P25100). The settings on record: Compound concentration 10.0 uM.
In experiment [10] the target is Serine/threonine-protein kinase pim-1 (Homo sapiens) (UniProt P11309). Description: PIM1 SGC Tm panel (DSF). The settings on record: for ΔTm: Compound concentration 10.0 uM.
Experiment [11] concerns the target T3, Transcription intermediary factor 1-alpha (Homo sapiens) (UniProt O15164).
T3 sequence (whole entry): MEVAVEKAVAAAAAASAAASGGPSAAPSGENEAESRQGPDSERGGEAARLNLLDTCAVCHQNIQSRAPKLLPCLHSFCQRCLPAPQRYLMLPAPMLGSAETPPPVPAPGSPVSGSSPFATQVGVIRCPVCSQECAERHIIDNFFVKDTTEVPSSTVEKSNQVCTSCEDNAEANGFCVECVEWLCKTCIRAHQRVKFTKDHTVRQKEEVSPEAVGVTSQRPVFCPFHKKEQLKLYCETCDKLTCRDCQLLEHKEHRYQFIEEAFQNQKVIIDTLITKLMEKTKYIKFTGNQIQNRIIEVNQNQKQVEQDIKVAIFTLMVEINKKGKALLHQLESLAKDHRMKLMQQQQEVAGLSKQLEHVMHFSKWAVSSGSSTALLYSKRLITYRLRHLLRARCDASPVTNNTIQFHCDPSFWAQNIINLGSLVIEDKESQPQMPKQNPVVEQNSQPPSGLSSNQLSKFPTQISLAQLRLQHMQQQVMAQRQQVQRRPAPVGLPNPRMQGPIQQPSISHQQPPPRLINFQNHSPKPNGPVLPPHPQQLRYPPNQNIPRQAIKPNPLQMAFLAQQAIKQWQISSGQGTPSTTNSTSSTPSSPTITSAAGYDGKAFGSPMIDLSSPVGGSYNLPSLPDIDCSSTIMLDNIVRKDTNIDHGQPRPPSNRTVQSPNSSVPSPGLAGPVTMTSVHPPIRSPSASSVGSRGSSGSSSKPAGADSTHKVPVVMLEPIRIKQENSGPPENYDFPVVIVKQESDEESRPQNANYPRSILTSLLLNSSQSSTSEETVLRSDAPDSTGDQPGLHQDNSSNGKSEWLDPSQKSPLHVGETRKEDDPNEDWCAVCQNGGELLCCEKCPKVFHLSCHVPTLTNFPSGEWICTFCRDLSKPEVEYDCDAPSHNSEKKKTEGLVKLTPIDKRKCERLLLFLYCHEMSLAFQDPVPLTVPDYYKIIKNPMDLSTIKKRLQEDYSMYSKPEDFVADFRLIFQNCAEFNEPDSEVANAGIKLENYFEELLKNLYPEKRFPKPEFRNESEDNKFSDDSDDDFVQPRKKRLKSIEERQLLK
Description: TIF1 SGC Tm panel (DSF). As to conditions: for ΔTm: Compound concentration 10.0 uM.

Each structure is given as a SMILES string.

Chain of Alpha-1D adrenergic receptor (Homo sapiens) (P25100 whole entry): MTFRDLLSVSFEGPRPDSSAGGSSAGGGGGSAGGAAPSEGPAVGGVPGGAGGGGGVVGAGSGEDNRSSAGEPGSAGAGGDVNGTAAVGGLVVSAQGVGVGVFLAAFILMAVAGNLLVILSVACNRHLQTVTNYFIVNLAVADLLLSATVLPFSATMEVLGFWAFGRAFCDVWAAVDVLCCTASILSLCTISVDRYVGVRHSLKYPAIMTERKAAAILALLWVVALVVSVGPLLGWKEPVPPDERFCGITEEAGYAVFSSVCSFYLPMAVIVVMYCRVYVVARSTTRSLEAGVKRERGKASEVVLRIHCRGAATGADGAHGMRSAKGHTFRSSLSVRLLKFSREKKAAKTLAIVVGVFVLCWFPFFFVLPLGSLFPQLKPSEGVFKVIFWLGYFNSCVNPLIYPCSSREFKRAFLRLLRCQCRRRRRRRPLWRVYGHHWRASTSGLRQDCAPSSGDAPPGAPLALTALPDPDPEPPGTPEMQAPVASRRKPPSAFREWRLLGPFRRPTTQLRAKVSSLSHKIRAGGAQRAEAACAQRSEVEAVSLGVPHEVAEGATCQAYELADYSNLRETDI
Chain of Fibroblast growth factor receptor 1 (Homo sapiens) (P11362 22-822 limits assumed): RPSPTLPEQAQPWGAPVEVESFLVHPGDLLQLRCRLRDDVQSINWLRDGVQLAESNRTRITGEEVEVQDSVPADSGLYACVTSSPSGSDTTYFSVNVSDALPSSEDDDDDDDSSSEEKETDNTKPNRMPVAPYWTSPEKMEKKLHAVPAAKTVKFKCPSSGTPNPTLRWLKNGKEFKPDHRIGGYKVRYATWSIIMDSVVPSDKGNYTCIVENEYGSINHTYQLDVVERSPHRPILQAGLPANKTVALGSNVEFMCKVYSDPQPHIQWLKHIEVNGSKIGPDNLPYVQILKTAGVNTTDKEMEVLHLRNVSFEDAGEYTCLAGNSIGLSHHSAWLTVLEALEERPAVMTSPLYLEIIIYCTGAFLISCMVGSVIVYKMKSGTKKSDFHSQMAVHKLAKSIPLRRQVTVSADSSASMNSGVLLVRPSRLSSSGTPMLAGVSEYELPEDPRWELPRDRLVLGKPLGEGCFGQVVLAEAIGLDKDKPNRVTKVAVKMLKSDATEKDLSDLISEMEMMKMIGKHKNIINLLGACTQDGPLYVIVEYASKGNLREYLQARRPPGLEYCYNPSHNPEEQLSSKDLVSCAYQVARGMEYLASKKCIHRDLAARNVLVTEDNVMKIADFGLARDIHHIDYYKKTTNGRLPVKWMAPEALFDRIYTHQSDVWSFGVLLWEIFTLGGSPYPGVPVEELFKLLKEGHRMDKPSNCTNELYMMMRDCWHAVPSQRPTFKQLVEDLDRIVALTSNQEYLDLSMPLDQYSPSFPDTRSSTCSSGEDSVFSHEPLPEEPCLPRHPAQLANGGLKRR
Chain of 5-hydroxytryptamine receptor 2A (Homo sapiens) (P28223 whole entry): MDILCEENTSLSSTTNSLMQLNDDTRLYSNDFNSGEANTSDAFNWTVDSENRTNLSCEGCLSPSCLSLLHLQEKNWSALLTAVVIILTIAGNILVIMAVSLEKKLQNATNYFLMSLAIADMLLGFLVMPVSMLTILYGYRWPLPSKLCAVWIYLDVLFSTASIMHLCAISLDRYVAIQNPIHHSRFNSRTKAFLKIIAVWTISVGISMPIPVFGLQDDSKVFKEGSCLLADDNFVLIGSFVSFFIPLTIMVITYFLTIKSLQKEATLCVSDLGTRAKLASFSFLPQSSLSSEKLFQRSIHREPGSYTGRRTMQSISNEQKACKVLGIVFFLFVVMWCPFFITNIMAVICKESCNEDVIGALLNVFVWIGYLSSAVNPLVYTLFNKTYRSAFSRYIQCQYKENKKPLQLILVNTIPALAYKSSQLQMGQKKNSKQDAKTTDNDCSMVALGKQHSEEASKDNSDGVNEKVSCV
Chain of Serine/threonine-protein kinase pim-1 (Homo sapiens) (P11309 whole entry, looked up): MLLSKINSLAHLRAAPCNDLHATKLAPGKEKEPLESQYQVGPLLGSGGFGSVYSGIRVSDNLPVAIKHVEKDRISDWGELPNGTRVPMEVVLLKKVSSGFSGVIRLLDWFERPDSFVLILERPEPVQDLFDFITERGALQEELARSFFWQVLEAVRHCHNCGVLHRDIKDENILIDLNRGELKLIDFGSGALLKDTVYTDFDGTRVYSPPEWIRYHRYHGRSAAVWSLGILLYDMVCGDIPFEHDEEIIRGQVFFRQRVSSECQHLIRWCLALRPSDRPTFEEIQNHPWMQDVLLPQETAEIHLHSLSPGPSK
Chain of Delta-type opioid receptor (Homo sapiens) (P41143 whole entry): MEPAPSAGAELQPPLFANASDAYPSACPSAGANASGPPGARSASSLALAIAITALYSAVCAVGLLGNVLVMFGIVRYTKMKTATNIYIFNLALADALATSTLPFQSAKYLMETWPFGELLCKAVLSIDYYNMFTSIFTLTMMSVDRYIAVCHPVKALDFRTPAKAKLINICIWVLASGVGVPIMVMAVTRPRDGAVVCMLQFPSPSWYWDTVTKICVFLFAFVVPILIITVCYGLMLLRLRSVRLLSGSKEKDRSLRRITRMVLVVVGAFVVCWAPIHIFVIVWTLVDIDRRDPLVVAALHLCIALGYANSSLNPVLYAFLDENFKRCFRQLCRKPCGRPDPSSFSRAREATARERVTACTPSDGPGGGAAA
Chain of AP2-associated protein kinase 1 (Homo sapiens) (Q2M2I8 whole entry, looked up): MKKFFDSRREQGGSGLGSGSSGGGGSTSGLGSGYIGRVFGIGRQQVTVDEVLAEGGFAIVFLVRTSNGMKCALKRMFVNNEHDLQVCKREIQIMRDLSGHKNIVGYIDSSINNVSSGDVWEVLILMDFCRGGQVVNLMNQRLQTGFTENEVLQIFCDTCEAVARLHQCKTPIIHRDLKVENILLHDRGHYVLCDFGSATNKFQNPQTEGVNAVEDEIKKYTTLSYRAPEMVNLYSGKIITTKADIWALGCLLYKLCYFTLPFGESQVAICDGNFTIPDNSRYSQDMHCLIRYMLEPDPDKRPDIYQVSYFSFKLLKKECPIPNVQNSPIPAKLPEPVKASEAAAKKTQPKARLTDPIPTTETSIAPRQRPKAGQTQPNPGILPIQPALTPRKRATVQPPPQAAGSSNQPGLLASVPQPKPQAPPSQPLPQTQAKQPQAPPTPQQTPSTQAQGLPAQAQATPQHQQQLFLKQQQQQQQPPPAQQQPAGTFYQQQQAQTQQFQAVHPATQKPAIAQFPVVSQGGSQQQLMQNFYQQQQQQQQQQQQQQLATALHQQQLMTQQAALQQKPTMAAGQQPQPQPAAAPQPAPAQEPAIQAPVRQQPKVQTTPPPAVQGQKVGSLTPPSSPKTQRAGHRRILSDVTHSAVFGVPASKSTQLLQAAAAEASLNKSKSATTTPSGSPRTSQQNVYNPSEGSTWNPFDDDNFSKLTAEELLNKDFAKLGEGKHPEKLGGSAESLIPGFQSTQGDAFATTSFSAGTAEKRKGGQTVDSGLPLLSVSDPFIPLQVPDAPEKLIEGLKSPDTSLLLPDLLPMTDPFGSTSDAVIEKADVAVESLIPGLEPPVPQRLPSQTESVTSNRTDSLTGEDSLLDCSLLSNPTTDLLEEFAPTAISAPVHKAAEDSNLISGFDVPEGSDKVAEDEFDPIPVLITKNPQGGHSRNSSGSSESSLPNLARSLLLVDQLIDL
Chain of Muscarinic acetylcholine receptor M3 (Homo sapiens) (P20309 whole entry, looked up): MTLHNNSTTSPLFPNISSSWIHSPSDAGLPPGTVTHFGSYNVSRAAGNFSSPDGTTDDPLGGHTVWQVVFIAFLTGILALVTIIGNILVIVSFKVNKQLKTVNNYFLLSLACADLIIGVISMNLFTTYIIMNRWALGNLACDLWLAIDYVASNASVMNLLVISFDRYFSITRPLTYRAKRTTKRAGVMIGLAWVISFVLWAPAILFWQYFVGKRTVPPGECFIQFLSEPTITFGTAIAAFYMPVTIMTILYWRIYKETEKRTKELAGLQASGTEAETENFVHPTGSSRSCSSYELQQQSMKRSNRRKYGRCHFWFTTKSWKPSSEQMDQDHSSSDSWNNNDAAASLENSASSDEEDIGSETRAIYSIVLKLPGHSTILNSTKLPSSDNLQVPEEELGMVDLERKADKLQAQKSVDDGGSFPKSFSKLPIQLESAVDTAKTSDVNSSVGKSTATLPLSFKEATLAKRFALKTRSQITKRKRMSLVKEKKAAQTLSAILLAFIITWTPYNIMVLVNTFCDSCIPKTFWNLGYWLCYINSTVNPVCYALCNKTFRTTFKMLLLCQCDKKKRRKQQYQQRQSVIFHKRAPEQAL

Consider `CCC[C@@H]1CNCc2c1[nH]c(=O)c(C#N)c2N1CCC2(CC1)CC2`, for which the delta Tm Staurosporine positive control is 6.4 in experiment [1]; 5.57 in experiment [3]; 12.4 in experiment [5]; 12.2 in [10]; 0.0394 in experiment [11]. Besides, the ΔTm is -0.932 in experiment [1]; -0.198 in experiment [3]; -0.478 in experiment [5]; -0.124 in [10]; -0.244 in experiment [11]. Moreover, the inhibition in experiment [2] is -4.86%; in experiment [4] it was 3.32%; in [6] it was 0.4%; in [7], 2.48%; in experiment [8], 3.91%; in experiment [9] it was -2.05%.

For `CCC[C@H]1CNCc2c1[nH]c(=O)c(C#N)c2N1CCC2(CC1)CC2`, the delta Tm Staurosporine positive control was found to be 6.4 in [1]; 5.57 in [3]; 12.4 in experiment [5]; 12.2 in experiment [10]; 0.0394 in experiment [11]. For the same compound, the ΔTm in [1] was -0.991; in experiment [3], -0.133; in experiment [5], -0.482; in [10] it was -0.108; in experiment [11], -0.211. Further, the inhibition in experiment [2] was -6.26%; in experiment [4], -1%; in experiment [6], 10.4%; in experiment [7], -1.19%; in [8], -9.99%; in experiment [9], 0.14%.

The inhibition is the relative decrease from the control value, in per cent.

For the origin of these results see ChEMBL document CHEMBL5303765, “Data for DCP probe BAY-7081” (2023).
